# From patent US4918056A, “2-substituted arabinopyranosyl nucleosides and nucleotides” (priority 1986, dated 1990)
# Tested on: M5076 sarcoma
# Assay: Therapeutic activity in C57/B16 mice with s.c. M5076 sarcoma
# Type: in vivo, mouse (C57/B16 female)
# Conditions: days 3-7; for % ILS (increase in life span): based on median survival; for Half Maximal Tumor Volume: control 32; for Median survival: control 37
# Method: The therapeutic activity of 85024 was evaluated in C57/B16 female mice implanted s.c. with either Lewis lung carcinoma or M5076 sarcoma (Table 5).
# C57/B16 female mice were implanted s.c. using a trochar on day 0 with a 50 mg piece of either Lewis lung carcinoma of M5076 sarcoma. Drugs were administered i.p. once daily on days 3, 4, 5, 6 and 7. Tumor size (two perpendicular diameters) was measured with calipers and volume was estimated algebraically. Survival was monitored daily for 60 days. % ILS (increase in life span) is based on median survival.
smiles,measurement,setting,value
"COC1OC[C@@H](OC(C)=O)[C@@H](OC(C)=O)[C@]1(F)n1ccc(=O)[nH]c1=O (stereo partly drawn) [compound 85024, Methyl 3,4-di-0-acetyl-2-deoxy-2(R)-[1H,3H-2,4-dioxo-1-pyrimidinyl]-2-fluoro-α-D-arabinopyranoside [5a] and methyl 3,4-di-0-acetyl-2-deoxy-2(R)-[1H,3H-2,4-dioxo-1-pyrimidinyl]-2-fluoro-β-D-arabinopyranoside [6a]]",effect on tumor size,400 mg/kg/day i.p.,statistically significant decrease in tumor size
same,% ILS (increase in life span),50 mkd × 5 i.p.,0%
same,Half Maximal Tumor Volume,"50 mkd × 5 i.p., p < 0.05",35 days
same,Median survival,50 mkd × 5 i.p.,36 days
same,Survival Range,"50 mkd × 5 i.p., one animal survived for 60 days but bore a large, frank tumor",34 to 60 days
same,Survival Range,200 mkd × 5 i.p.,36 to 42 days
same,% ILS (increase in life span),200 mkd × 5 i.p.,0%
same,Half Maximal Tumor Volume,200 mkd × 5 i.p.,35 days
same,Median survival,200 mkd × 5 i.p.,37 days
same,Survival Range,400 mkd × 5 i.p.,33 to 47 days
same,% ILS (increase in life span),400 mkd × 5 i.p.,14%
same,Half Maximal Tumor Volume,"400 mkd × 5 i.p., p < 0.05",38 days
same,Median survival,400 mkd × 5 i.p.,42 days
